Reference: patent US10761087B2, “Choroidal neovascularization suppressor or drusen formation suppressor, and method for assessing or screening for same” (Link Genomics, Inc., priority 2015, dated 2020)
Where two headings read alike, the source gives them in different places.

Assays:
[1] = cited from earlier work
[2] = test system: EMT markers (mesenchymal markers, ECM) in RPE cells (ARPE-19); experiment: Change in expression of EMT markers (real-time PCR) in EMT-induced RPE cells; format: cell-based, human; conditions: EMT-induced ARPE-19, 48 hours; for Enhancement of expression of Fibronectin, Snail and vimentin (mesenchymal markers): compound at Cmax, ½ of Cmax or ¼ of Cmax; for EMT suppression (FIG. 3 to FIG. 7) / Expression of EMT markers other than the ten common markers / Expression of Snail, Slug, CDH3, MMP1, MMP7, COL5A3, COL6A3, LAMC2, HMMR, TNC: oxaprozin 300 μM, epalrestat 30 μM, zafirlukast 3 μM, amlexanox 30 μM, zaltoprofen 30 μM
Procedure: RPE cells (ARPE-19) were seeded on a plate, and incubated for 5 days at 37° C. For the RPE cells, EMT was induced in the conditions described in Test example 1-1, and respective compounds (oxaprozin, epalrestat, zafirlukast, amlexanox, zaltoprofen) were added simultaneously, and the cells were collected after 48 hours from induction of EMT. As a control, a sample to which a compound to be assessed (test drug) is not added was used. The collected cells were washed with PBS, and 350 μL of an RLT buffer was added to prepare a lysate for RNA extraction. The respective compounds were used in the following concentrations. Oxaprozin: 300 μM, epalrestat: 30 μM, zafirlukast: 3 μM, amlexanox: 30 μM, zaltoprofen: 30 μM. Total RNA was extracted from the lysate using an RNeasy Micro kit (QIAGEN, #74004), and from 2 μg of the obtained RNA, cDNA was prepared using a SuperScript III First-Strand Synthesis SuperMix for qRT-PCR (Invitrogen, #11752-250). Using 50 ng of the obtained cDNA as a template, a real-time PCR (ABI Prism 7500 Sequence Detection System) was conducted according to the manufacturer's protocol, and expression of mRNA of each gene was quantified. Specific primers for respective genes were purchased from Invitrogen. Ct (Threshold Cycle) value of each gene was calculated as a percentage to a non-treated sample after normalization by endogenous control.
Five compounds (flufenamic acid aluminum (addition concentration: 28 μM (Cmax)), mefenamic acid (addition concentration: 39 μm (Cmax)), sulindac (addition concentration: 100 μM), tiaprofenic acid (addition concentration: 1000 μM), and seratrodast (addition concentration: 31 μM (Cmax))) were assessed for change in expression of EMT markers in the same manner as in Test example 2-1. The results are shown in FIG. 8 to FIG. 12, respectively.
(§1) RPE cells (ARPE-19) were seeded on a plate, and incubated for 5 days at 37° C. […] Each compound was added in a concentration of Cmax, ½ of Cmax or ¼ of Cmax. As a control, a sample to which a compound to be assessed (test drug) is not added was used. The collected cells were washed with PBS, and 350 μL of an RLT buffer was added to prepare a lysate for RNA extraction. Total RNA was extracted from the lysate using an RNeasy Micro kit (QIAGEN, #74004), and from 2 μg of the obtained RNA, cDNA was prepared using a SuperScript III First-Strand Synthesis SuperMix for qRT-PCR (Invitrogen, #11752-250). Using 50 ng of the obtained cDNA as a template, a real-time PCR (ABI Prism 7500 Sequence Detection System) was conducted according to the manufacturer's protocol, and expression of mRNA of each gene was quantified. Specific primers for respective genes were purchased from Invitrogen. Ct (Threshold Cycle) value of each gene was calculated as a percentage to a non-treated sample after normalization by endogenous control. For each result, a significant test (Student t test) was conducted, and when p<0.05, the result was marked with “*”, and when p<0.01, the result was marked with “**”.
RPE cells (ARPE-19) were seeded on a plate, and incubated for 5 days at 37° C. For the RPE cells, EMT was induced in the conditions described in Test example 5-1, and the five representative compounds (oxaprozin, epalrestat, zafirlukast, amlexanox, zaltoprofen) were added simultaneously, and the cells were collected after 48 hours from induction of EMT. As a control, a sample to which a compound to be assessed (test drug) is not added was used. The collected cells were washed with PBS, and 350 μL of an RLT buffer was added to prepare a lysate for RNA extraction. Total RNA was extracted from the lysate using an RNeasy Micro kit (QIAGEN, # 74004), and from 2 μg of the obtained RNA, cDNA was prepared using a SuperScript III First-Strand Synthesis SuperMix for qRT-PCR (Invitrogen, # 11752-250). […]

VEGF = experiment: Change in expression of VEGF mRNA (real-time PCR) in EMT-induced RPE cells; format: cell-based, human; conditions: EMT-induced ARPE-19, 48 hours, compound at Cmax, ½ of Cmax or ¼ of Cmax
Procedure: as §1
The results are shown in FIG. 16 or FIG. 17, respectively.
The VEGF suppressive effect was assessed using the cell model as described above in the same manner as in Test example 2-3. The results are shown in FIG. 18 to FIG. 20, respectively.

[3] = Table 3, from the interview form and the package insert of each drug, read-out: Cmax
[4] = quoted in Test examples 2-3, 2-4, 2-5, read-out: Cmax (as quoted in the VEGF test examples)

| SMILES | Cmax ([1]; Pharmaceutical Interview Form, single-dose administration, read-out: Cmax) [µM] | Cmax ([1]; Soleton tablet 80 Interview Form, single-dose administration, depending on the kind of the additive, read-out: Cmax) [µM] | Cmax [1, 3] [µM] | Cmax [1, 4] [µM] | Enhancement of expression of Fibronectin, Snail and vimentin (mesenchymal markers) [2] | EMT suppression (FIG. 3 to FIG. 7) [2] | Expression of EMT markers other than the ten common markers [2] | Expression of Snail, Slug, CDH3, MMP1, MMP7, COL5A3, COL6A3, LAMC2, HMMR, TNC [2] | Enhancement of VEGF mRNA expression by EMT induction (VEGF) | Enhancement of VEGF mRNA expression by EMT induction (VEGF; listed as zaltoprofen) | Cmax ([1]; Alvo tablet Interview Form, repeated-dose administration, read-out: Cmax) [µM] | Enhancement of VEGF mRNA expression by EMT induction (VEGF; listed as oxaprozin) |
| --- | --- | --- | --- | --- | --- | --- | --- | --- | --- | --- | --- | --- |
| CC(C(=O)O)c1ccc2c(c1)CC(=O)c1ccccc1S2 (stereo not shown) [Zaltoprofen, zaltoprofen] | 20.4 | 16.8 | 20.4 | 20.4 | suppressed enhancement of expression of these in a concentration dependent manner | significantly suppress EMT | decrease in expression was observed in ZEB2, FN1, COL13A1, and CSPG4 | suppressed expression | suppressed enhancement of VEGF expression in a concentration dependent manner | suppress enhancement of mRNA expression of VEGF |  |  |
| O=C(O)CCc1nc(-c2ccccc2)c(-c2ccccc2)o1 [Oxaprozin, oxaprozin] |  |  | 341 | 341 | suppressed enhancement of expression of these in a concentration dependent manner | significantly suppress EMT | decrease in expression was observed in ZEB2, MMP3, COL1A1, COL1A2, CSPG4, and SRGN | suppressed expression | suppressed enhancement of VEGF expression in a concentration dependent manner |  | 341 | suppress enhancement of mRNA expression of VEGF |
